The first test has as its system HIV-IIIb. Put plainly: Antiviral assay in MT-2 cells infected with HIV-IIIb. The test is classed as cell-based. The note with it: Human immunodeficiency virus 1, IIIB, MT2, 120 h, MT-2 cells infected with HIV-IIIb, m.o.i. 0.01, 10% FBS, 5 days at 37° C., CellTiter-Glo chemiluminescence; read-out: EC50 in MT-2 cells.
For `CNC(=O)c1c(O)c2ncc(Cc3ccc(F)cc3)c3c2n(c1=O)C[C@H](C(=O)NC)O3` [A-50], the half-maximal effective concentration (EC50) stood at 6.8 nM.

Turning to `CNC(=O)c1c(O)c2ncc(Cc3ccc(F)cc3)c3c2n(c1=O)CCN3` [compound 37], the concentration for a half-maximal effect (EC50) worked out at 5.8 nM. As to `CNC(=O)c1c(O)c2ncc(Cc3ccc(F)cc3)c3c2n(c1=O)C=C(C(=O)NC(C)(C)CN)O3` [Example 121], the EC50 worked out at 5.8 nM. As for `CNC(=O)C1=Cn2c(=O)c(C(=O)NCCO)c(O)c3ncc(Cc4ccc(F)cc4)c(c32)O1` [A-89], the EC50 turned out to be 23 nM. `Cn1cnnc1CCNC(=O)c1c(O)c2ncc(Cc3ccc(F)cc3)c3c2n(c1=O)CC(F)(F)CN3` [Example 148]: the EC50 is 45.6 nM. Turning to `CNC(=O)c1c(O)c2ncc(Cc3ccc(F)cc3)c3c2n(c1=O)C=C(C(=O)NCC1(O)CCCCC1)O3` [Example 142], the 50% effective concentration (EC50) was 1.9 nM. Regarding `CNC(=O)c1c(O)c2ncc(Cc3ccc(F)cc3)c3c2n(c1=O)C=C(C(=O)NCC(C)(C)C#N)O3` [Example 134], the concentration giving a half-maximal response (EC50) stood at 2.5 nM. Turning to `CC(=O)N1CCn2c(=O)c(C(=O)NCCO)c(O)c3ncc(Cc4ccc(F)cc4)c1c32` [compound 43], the EC50 is 982 nM. With `O=C(NCC1(CO)CC1)c1c(O)c2ncc(Cc3ccc(F)cc3)c3c2n(c1=O)CC(F)(F)CN3` [Example 152], the 50% effective concentration (EC50) was found to be 7 nM.

Take `CNC(=O)c1c(O)c2ncc(Cc3ccc(F)cc3)c3c2n(c1=O)C[C@@H](CN(C)C(C)(C)C)O3` [Example 201]: the EC50 was determined as 2.8 nM. On to `O=C(NCCO)c1c(O)c2ncc(Cc3ccc(F)cc3)c3c2n(c1=O)CCCO3` [compound 24], for which the concentration giving a half-maximal response (EC50) was determined as 4.6 nM.

`N#CCCNC(=O)c1c(O)c2ncc(Cc3ccc(F)cc3)c3c2n(c1=O)CC(F)(F)CN3` [A-9]: the EC50 worked out at 4 nM. On to `CNC(=O)c1c(O)c2ncc(Cc3ccc(F)cc3)c3c2n(c1=O)C=C(C(=O)NCCOC)O3` [Example 113], for which the EC50 was 5.3 nM. On to `CNC(=O)c1c(O)c2ncc(Cc3ccc(F)cc3)c3c2n(c1=O)C=C(C(=O)NC(C)(C)CO)O3` [Example 126], for which the EC50 is 3.3 nM. The same measure, in the same setting: the result for `CCN(CC)C(=O)C1=Cn2c(=O)c(C(=O)NCCOC)c(O)c3ncc(Cc4ccc(F)cc4)c(c32)O1` [Example 105] reads 71 nM; that for `CNC(=O)c1c(O)c2ncc(Cc3ccc(F)cc3)c3c2n(c1=O)C=C(C(=O)NCC(C)(C)N1CCOCC1)O3` [Example 117], 14 nM. In the case of `CNC(=O)c1c(O)c2ncc(Cc3ccc(F)cc3)c3c2n(c1=O)C=C(C(=O)NC1CC1)O3` [A-85], the EC50 turned out to be 4 nM. Consider `CNC(=O)c1c(O)c2ncc(Cc3ccc(F)cc3)c3c2n(c1=O)C=C(C(=O)NCC(C)(C)NC(=O)c1nnc(C)o1)O3` [Example 122], for which the EC50 was 64 nM. On to `O=C(NCCN1CCOCC1)c1c(O)c2ncc(Cc3ccc(F)cc3)c3c2n(c1=O)CCO3` [compound 13], for which the concentration for a half-maximal effect (EC50) was determined as 7 nM. Consider `O=C(NC1CC(O)C1)c1c(O)c2ncc(Cc3ccc(F)cc3)c3c2n(c1=O)CC(F)(F)CN3` (stereo not drawn) [A-18], for which the half-maximal effective concentration (EC50) was determined as 7 nM. Turning to `CNC(=O)c1c(O)c2ncc(Cc3ccc(F)cc3)c3c2n(c1=O)C=C(C(=O)NC(C)(C)C)O3` [Example 136], the 50% effective concentration (EC50) was 7.2 nM.

Turning to `CNC(=O)c1c(O)c2ncc(Cc3ccc(F)cc3)c3c2n(c1=O)C[C@H](CC#N)O3` [Example 198], the half-maximal effective concentration (EC50) is 3 nM.

`COCCNC(=O)c1c(O)c2ncc(Cc3ccc(F)cc3)c3c2n(c1=O)C=C(C(=O)NC(C)(C)CO)O3` [Example 127]: the EC50 was found to be 5 nM. Same read-out and setting: then `O=C(NCC1(O)CC1)c1c(O)c2ncc(Cc3ccc(F)cc3)c3c2n(c1=O)CC(F)(F)CN3` [A-11], with 3.5 nM; and `COCCNC(=O)c1c(O)c2ncc(Cc3ccc(F)cc3)c3c2n(c1=O)CCN3` [compound 33], with 3.3 nM; and `CNC(=O)c1c(O)c2ncc(Cc3ccc(F)cc3)c3c2n(c1=O)CC(C(=O)N(C)C)O3` (stereo not drawn) [A-35], with 5.7 nM. Turning to `O=C(NCCN(CCO)CCO)c1c(O)c2ncc(Cc3ccc(F)cc3)c3c2n(c1=O)CCO3` [compound 15], the concentration giving a half-maximal response (EC50) amounted to 13 nM. For `CNC(=O)[C@@H]1Cn2c(=O)c(C(=O)NCCO)c(O)c3ncc(Cc4ccc(F)cc4)c(c32)O1` [Example 176], the EC50 turned out to be 23.2 nM. For the compound `CCOCCNC(=O)c1c(O)c2ncc(Cc3ccc(F)cc3)c3c2n(c1=O)CCN3` [compound 38], the EC50 turned out to be 8.5 nM.

With `CNC(=O)c1c(O)c2ncc(Cc3ccc(F)cc3)c3c2n(c1=O)C=C(C(=O)N1CCCCC1)O3` [Example 131], the concentration giving a half-maximal response (EC50) is 13.9 nM. On to `CNC(=O)c1c(O)c2ncc(Cc3ccc(F)cc3)c3c2n(c1=O)C[C@@H](Cn1ccnc1C(=O)NC)O3` [Example 205], for which the EC50 is 1 nM.

As for `CC(C)N1CCN(CCNC(=O)c2c(O)c3ncc(Cc4ccc(F)cc4)c4c3n(c2=O)CCO4)CC1` [compound 16], the EC50 is 12 nM.

In the case of `CNC(=O)c1c(O)c2ncc(Cc3ccc(F)cc3)c3c2n(c1=O)C[C@@H](CN(C)CCO)O3` [Example 202], the EC50 was found to be 12 nM. Same read-out and setting: then `COCCNC(=O)c1c(O)c2ncc(Cc3ccc(F)cc3)c3c2n(c1=O)C=C(C(=O)NCCN1CCCC1)O3` [Example 109], with 37.5 nM. Regarding `O=C(NCCCN1CCCC1)c1c(O)c2ncc(Cc3ccc(F)cc3)c3c2n(c1=O)CC(CO)O3` (stereo not drawn) [A-28], the concentration for a half-maximal effect (EC50) was determined as 51 nM. Consider `N#CCCNC(=O)c1c(O)c2ncc(Cc3ccc(F)cc3)c3c2n(c1=O)C=C(C(=O)N1CCCCC1)O3` [Example 132], for which the half-maximal effective concentration (EC50) came to 37.4 nM. The same measure, in the same setting: then `CNC(=O)c1c(O)c2ncc(Cc3ccc(F)cc3)c3c2n(c1=O)C[C@@H](C(N)=O)O3` [Example 168], with 12 nM; and `CN1CCn2c(=O)c(C(=O)NCCO)c(O)c3ncc(Cc4ccc(F)cc4)c1c32` [compound 45], with 2 nM; and `COCC1Cn2c(=O)c(C(=O)NCCO)c(O)c3ncc(Cc4ccc(F)cc4)c(c32)O1` (stereo not drawn) [A-31], with 1.5 nM.

For `CNC(=O)[C@@H]1Cn2c(=O)c(C(=O)NCCCO)c(O)c3ncc(Cc4ccc(F)cc4)c(c32)O1` [Example 166], the EC50 was found to be 9 nM. In the case of `CNC(=O)c1c(O)c2ncc(Cc3ccc(F)cc3)c3c2n(c1=O)C=C(C(=O)NC(CO)CO)O3` [A-94], the EC50 worked out at 49 nM. On to `COCCNC(=O)C1=Cn2c(=O)c(C(=O)NCCOC)c(O)c3ncc(Cc4ccc(F)cc4)c(c32)O1` [Example 114], for which the 50% effective concentration (EC50) was 6.4 nM. The same measure, in the same setting: the result for `CNC(=O)c1c(O)c2ncc(Cc3ccc(F)cc3)c3c2n(c1=O)C[C@H](CO)O3` [A-69] reads 4 nM; that for `CNC(=O)c1c(O)c2ncc(Cc3ccc(F)cc3)c3c2n(c1=O)C[C@H](CN(C)C(C)=O)O3` [Example 209], 5.1 nM. Still for that read-out and setting: the result for `O=C(NC1CC1)c1c(O)c2ncc(Cc3ccc(F)cc3)c3c2n(c1=O)CCN3` [compound 36] reads 3.5 nM; that for `C[C@@H]1CCCN1CCCNC(=O)c1c(O)c2ncc(Cc3ccc(F)cc3)c3c2n(c1=O)CC(F)(F)CN3` [Example 158], 8.2 nM; that for `CNC(=O)c1c(O)c2ncc(Cc3ccc(F)c(Cl)c3)c3c2n(c1=O)C=C(C(=O)NCC(C)(C)C#N)O3` [Example 118], 0.7 nM. On to `O=C(NCCCN1CCCC1)c1c(O)c2ncc(Cc3ccc(F)cc3)c3c2n(c1=O)CC(F)(F)CN3` [Example 151], for which the EC50 turned out to be 23 nM. Regarding `O=C(NCCO)c1c(O)c2ncc(Cc3ccc(F)cc3)c3c2n(c1=O)CCO3` [compound 12], the 50% effective concentration (EC50) is 3.2 nM. Turning to `COCCNC(=O)c1c(O)c2ncc(Cc3ccc(F)cc3)c3c2n(c1=O)C=C(C(=O)N1CCN(CC(F)(F)F)CC1)O3` [Example 110], the 50% effective concentration (EC50) is 27.4 nM. Turning to `CNC[C@H]1Cn2c(=O)c(C(=O)NC)c(O)c3ncc(Cc4ccc(F)cc4)c(c32)O1` [Example 197], the EC50 worked out at 32 nM. Consider `O=C(NCC(F)(F)CO)c1c(O)c2ncc(Cc3ccc(F)cc3)c3c2n(c1=O)CC(F)(F)CN3` [Example 149], for which the EC50 was found to be 5 nM. Same read-out and setting: the result for `O=C(NCCCN1CCCC1=O)c1c(O)c2ncc(Cc3ccc(F)cc3)c3c2n(c1=O)CC(F)(F)CN3` [Example 161] reads 4.2 nM; that for `CC1(C)Cn2c(=O)c(C(=O)NCCN3CCOCC3)c(O)c3ncc(Cc4ccc(F)cc4)c1c32` [compound 60], 400 nM; that for `CNC(=O)c1c(O)c2ncc(Cc3ccc(F)cc3)c3c2n(c1=O)C[C@@H](CNC(C)=O)O3` [Example 200], 1.1 nM.

`CC(C)(C#N)CNC(=O)C1=Cn2c(=O)c(C(=O)NC3CC3)c(O)c3ncc(Cc4ccc(F)cc4)c(c32)O1` [Example 135]: the EC50 was 2.7 nM. For the compound `CNC(=O)c1c(O)c2ncc(Cc3ccc(F)cc3)c3c2n(c1=O)C[C@@H](CN(C)S(C)(=O)=O)O3` [Example 206], the 50% effective concentration (EC50) is 0.1 nM.

With `O=C(NCCO)c1c(O)c2ncc(Cc3ccc(F)cc3)c3c2n(c1=O)CC(F)(F)CN3` [compound 79], the EC50 came to 7 nM. `CNC(=O)c1c(O)c2ncc(Cc3ccc(F)cc3)c3c2n(c1=O)C=C(C(=O)NC(C)(C)CNC(=O)OC(C)(C)C)O3` [Example 120]: the EC50 was 19 nM. Still for that read-out and setting: the result for `CC1(C)Cn2c(=O)c(C(=O)NCCO)c(O)c3ncc(Cc4ccc(F)cc4)c1c32` [compound 59] reads 85 nM. Same read-out and setting: then `CNC(=O)c1c(O)c2ncc(Cc3ccc(F)cc3)c3c2n(c1=O)C=C(C(=O)NCC(C)(C)N)O3` [Example 123], with 35 nM; and `CNC(=O)c1c(O)c2ncc(Cc3ccc(F)cc3)c3c2n(c1=O)C[C@H](CN(C)S(C)(=O)=O)O3` [Example 208], with 0.6 nM. Turning to `Cc1cn2c(=O)c(C(=O)NCCO)c(O)c3ncc(Cc4ccc(F)cc4)c1c32` [compound 72], the concentration giving a half-maximal response (EC50) turned out to be 20 nM.

Staying with this test, now noted: Human immunodeficiency virus 1, IIIB, MT2, 120 h, read-out: EC50 in MT-2 cells (nM).
Regarding `CNC(=O)c1c(O)c2ncc(Cc3ccc(F)cc3)c3c2n(c1=O)C[C@@H](CN(C)S(=O)(=O)N(C)C)O3` [Example 210], the EC50 was 5 nM. Same read-out and setting: then `CNC(=O)c1c(O)c2ncc(Cc3ccc(F)cc3)c3c2n(c1=O)C=C(C1=NC(C)(C)CO1)O3` [Example 129], with 2.2 nM.

The same test, now with this note: MT-2 cells infected with HIV-IIIb, m.o.i. 0.01, 10% FBS, 5 days at 37° C., CellTiter-Glo chemiluminescence; read-out: EC50 in MT-2 cells.
As to `CCN(CC)C(=O)C1=Cn2c(=O)c(C(=O)NC)c(O)c3ncc(Cc4ccc(F)cc4)c(c32)O1` [A-91], the EC50 came out at 10 nM.

The values above are taken from US7998950B2, “Antiviral compounds” (Gilead Sciences, Inc., priority 2008, dated 2011).
